Laboratory results: USRE50082E1, “(5,6-dihydro)pyrimido[4,5-e]indolizines” (NETHERLANDS TRANSLATIONAL RESEARCH CENTER B.V., priority 2014, dated 2024)
pIC50: −log10 of the molar value. Like-named read-outs stand apart in the source and are kept apart here.

Assays:
[1] = target: Polo-like kinase 1 (PLK1) (Homo sapiens, UniProt P53350); assay: Biochemical Polo-like kinase 1 kinase assay (LANCE Ultra TR-FRET); details: for PLK1 Selectivity: IC50 PLK1/IC50 TTK (biochemical assays)
Method: To determine the inhibitory activity of the compounds on Polo-like kinase 1 (PLK1), the LANCE® Ultra TR-FRET assay (Perkin Elmer) was used. […] After 4 hours, the reaction was stopped by the addition of 5 μl 100 mM EDTA. […] Time-resolved fluorescence was measured on an Envision multilabel reader (Perkin Elmer, Waltham, Mass. USA). IC50 were calculated using XLfit™5 software (ID Business Solutions, Ltd., Surrey, U.K.).

MOLT-4 cancer cell line = assay: Cell proliferation assay, MOLT-4 cancer cell line (ATPlite); format: cell-based; details: Homo sapiens;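 further: luminescence read-out, percent growth versus compound-free DMSO wells as maximum growth, start-of-incubation signal separating growth from cell death, IC50 from logistic curve fit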
Aurora C = target: T1, Aurora C (Homo sapiens, UniProt Q9UQB9); assay: Biochemical Aurora C kinase assay (LANCE Ultra TR-FRET); details: for AurC Selectivity: IC50 AurC/IC50 TTK (biochemical assays); for pIC50: full-length Aurora C, 5 μM ATP
T1 construct: full-length Aurora C enzyme (Carna Biosciences, cat. no. 05-103); purchased Carna Biosciences 05-103
T1 sequence (Q9UQB9 1-309): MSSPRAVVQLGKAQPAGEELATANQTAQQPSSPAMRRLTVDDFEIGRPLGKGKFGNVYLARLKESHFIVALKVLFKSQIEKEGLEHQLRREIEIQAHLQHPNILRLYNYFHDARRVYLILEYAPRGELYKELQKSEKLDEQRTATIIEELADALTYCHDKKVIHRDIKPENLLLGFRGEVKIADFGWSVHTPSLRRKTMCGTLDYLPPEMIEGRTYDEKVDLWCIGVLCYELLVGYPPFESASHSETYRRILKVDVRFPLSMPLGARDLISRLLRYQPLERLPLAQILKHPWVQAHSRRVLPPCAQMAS
Method: To determine the inhibitory activity of the compounds on Aurora C, the LANCE® Ultra TR-FRET assay (Perkin Elmer) was used. […] After pre-incubation of 1 hour in the dark at room temperature, ULightTM-labeled PLK([MUT]) substrate peptide (Perkin Elmer, cat. no. TRF-0110) and ATP were added, to start the reaction. […] After 3 hours, the reaction was stopped by the addition of 5 μl 100 mM EDTA. […] Time-resolved fluorescence was measured on an Envision multilabel reader (Perkin Elmer, Waltham, Mass., USA). IC50 were calculated using XLfitTM5 software (ID Business Solutions, Ltd., Surrey, U.K.).

Aurora A = target: T2, Aurora A (Homo sapiens, UniProt O14965); assay: Biochemical Aurora A kinase assay (LANCE Ultra TR-FRET); details: for AurA Selectivity: IC50 AurA/IC50 TTK (biochemical assays); for pIC50: full-length Aurora A, 2 μM ATP
T2 construct: full-length Aurora A enzyme (Carna Biosciences, cat. no. 05-101); purchased Carna Biosciences 05-101
T2 sequence (O14965 1-403): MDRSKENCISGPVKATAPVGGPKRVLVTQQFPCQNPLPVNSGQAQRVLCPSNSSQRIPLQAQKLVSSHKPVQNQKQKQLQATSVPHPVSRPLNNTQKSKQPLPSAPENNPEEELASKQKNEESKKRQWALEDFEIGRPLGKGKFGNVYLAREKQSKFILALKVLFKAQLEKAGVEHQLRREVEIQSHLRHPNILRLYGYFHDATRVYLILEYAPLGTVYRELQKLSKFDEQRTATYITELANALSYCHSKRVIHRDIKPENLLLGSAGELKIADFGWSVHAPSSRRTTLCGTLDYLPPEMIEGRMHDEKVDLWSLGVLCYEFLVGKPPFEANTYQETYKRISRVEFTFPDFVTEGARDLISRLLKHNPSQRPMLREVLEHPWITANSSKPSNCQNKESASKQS
Method: To determine the inhibitory activity of the compounds on Aurora A, the LANCE® Ultra TR-FRET assay (Perkin Elmer) was used. […] After 2 hours, the reaction was stopped by the addition of 5 μl 100 mM EDTA. […] Time-resolved fluorescence was measured on an Envision multilabel reader (Perkin Elmer, Waltham, Mass., USA). IC50 were calculated using XLfit™5 software (ID Business Solutions, Ltd., Surrey, U.K.).

[2] = MOLT-4, 72 hours incubation, ATPlite 1Step, read-out: IC50 MOLT-4 cell proliferation
[3] = MOLT-4, worded 'TTK cellular assay', read-out: IC50 in the TTK cellular assay

Chain of Polo-like kinase 1 (PLK1) (P53350 whole entry): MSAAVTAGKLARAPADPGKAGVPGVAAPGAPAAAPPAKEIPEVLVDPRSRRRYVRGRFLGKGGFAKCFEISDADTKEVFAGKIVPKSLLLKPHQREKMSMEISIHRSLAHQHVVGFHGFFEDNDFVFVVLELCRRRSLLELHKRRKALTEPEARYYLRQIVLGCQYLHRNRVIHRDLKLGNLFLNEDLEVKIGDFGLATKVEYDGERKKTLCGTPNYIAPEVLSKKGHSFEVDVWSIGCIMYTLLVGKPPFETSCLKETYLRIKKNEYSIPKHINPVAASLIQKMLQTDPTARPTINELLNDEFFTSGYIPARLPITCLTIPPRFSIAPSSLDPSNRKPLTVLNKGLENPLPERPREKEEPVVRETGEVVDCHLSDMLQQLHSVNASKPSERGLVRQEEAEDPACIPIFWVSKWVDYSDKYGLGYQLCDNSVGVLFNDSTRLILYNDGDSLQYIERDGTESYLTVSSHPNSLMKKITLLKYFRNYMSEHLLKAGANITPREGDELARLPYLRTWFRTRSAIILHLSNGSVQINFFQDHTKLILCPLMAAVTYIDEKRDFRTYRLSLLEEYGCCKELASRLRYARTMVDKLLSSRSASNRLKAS

PLK1 Selectivity [1] | AurC Selectivity (Aurora C) | AurA Selectivity (Aurora A) | pIC50 (MOLT-4 cancer cell line; [3]) | Compound | pIC50 [1] | pIC50 (MOLT-4 cancer cell line; [2]) | pIC50 (Aurora C) | pIC50 (Aurora A) | pIC50 (MOLT-4 cancer cell line; MOLT-4, read-out: IC50 in the TTK cellular assay)
>500 | >500 | >500 | – | COCCOCCOCCn1nc(C)c(NC(=O)c2ccn3c2CCc2cnc(Nc4ccc(N5CCN(C)CC5)cc4OC)nc2-3)c1C [Example 138, N-[1-[2-[2-(2-methoxyethoxy)ethoxy]ethyl]-3,5-dimethyl-pyrrazol-4-yl]-2-[2-methoxy-4-(4-methylpiperazin-1-yl)anilino]-5,6-dihydropyrimido[4,5-e]indolizine-7-carboxamide] | ≤ 6.60 | > 7.30 | ≤ 7.00 | ≤ 7.00 | –
– | – | – | – | COc1cc(N2CCN(C(=O)NC(C)C)CC2)ccc1Nc1ncc2c(n1)-n1ccc(C(=O)Nc3c(C)cccc3C)c1CC2 [Example 145, N-(2,6-dimethylphenyl)-2-[4-[4-(isopropylcarbamoyl)piperazin-1-yl]-2-methoxy-anilino]-5,6-dihydropyrimido[4,5-e]indolizine-7-carboxamide] | – | > 7.30 | – | – | –
– | – | – | – | CCOCCOCCn1nc(C)c(NC(=O)c2ccn3c2CCc2cnc(Nc4ccc(N5CCN(C)CC5)cc4OC)nc2-3)c1C [Example 148, N-[1-[2-(2-ethoxyethoxy)ethyl]-3,5-dimethyl-pyrazol-4-yl]-2-[2-methoxy-4-(4-methylpiperazin-1-yl)anilino]-5,6-dihydropyrimido[4,5-e]indolizine-7-carboxamide] | ≤ 6.60 | – | ≤ 7.00 | ≤ 7.00 | > 7.30
>500 | >500 | >200 | > 7.30 | COCCOCCn1nc(C)c(NC(=O)c2ccn3c2CCc2cnc(Nc4ccc(N5CCN(C)CC5)cc4OC)nc2-3)c1C [Example 149, N-[1-[2-(2-methoxyethoxy)ethyl]-3,5-dimethyl-pyrazol-4-yl]-2-[2-methoxy-4-(4-methylpiperazin-1-yl)anilino]-b,6-dihydropyrimido[4,5-e]indolizine-7-carboxamide] | ≤ 6.60 | – | ≤ 7.00 | ≤ 7.00 | –
>500 | >500 | >200 | > 7.30 | CCOCCOCCn1nc(CC)c(NC(=O)c2ccn3c2CCc2cnc(Nc4ccc(N5CCN(C)CC5)cc4OC)nc2-3)c1CC [Example 150, N-[1-[2-(2-ethoxyethoxy)ethyl]-3,5-diethyl-pyrazol-4-yl]-2-[2-methoxy-4-(4-methylpiperazin-1-yl)anilino]-5,6-dihydropyrimido[4,5-e]indolizine-7-carboxamide] | ≤ 6.60 | – | ≤ 7.00 | ≤ 7.00 | –

Compound | PLK1 Selectivity [1] | AurC Selectivity (Aurora C) | AurA Selectivity (Aurora A) | pIC50 (MOLT-4 cancer cell line; [3]) | pIC50 [1] | pIC50 (MOLT-4 cancer cell line; [2]) | pIC50 (Aurora C) | pIC50 (Aurora A) | pIC50 (MOLT-4 cancer cell line; MOLT-4, read-out: IC50 in the TTK cellular assay)
CCc1n[nH]c(CC)c1NC(=O)c1ccn2c1CCc1cnc(Nc3ccc(N4CCN(C)CC4)cc3OC(F)F)nc1-2 [Example 33, N-(3,5-diethyl-1H-pyrazol-4-yl)-2-[2-(difluoromethoxy)-4-(4-methylpiperazin-1-yl)anilino]-5,6-dihydropyrimido[4,5-e]indolizine-7-carboxamide] | >500 | >500 | >500 | – | ≤ 6.60 | > 7.30 | ≤ 7.00 | ≤ 7.00 | –
CCc1nn(CCOCCOC)c(CC)c1NC(=O)c1ccn2c1CCc1cnc(Nc3ccc(N4CCN(C)CC4)cc3OC)nc1-2 [Example 141, N-[3,5-diethyl-1-[2-(2-methoxyethoxy)ethyl]pyrazol-4-yl]-2-[2-methoxy-4-(4-methylpiperazin-1-yl)anilino]-5,6-dihydropyrimido[4,5-e]indolizine-7-carboxamide] | >500 | >500 | >200 | – | ≤ 6.60 | > 7.30 | ≤ 7.00 | ≤ 7.00 | –
